# Experimental data taken from US6737383B1, “Herbicidal oxadiazolidines” (priority 1999, dated 2004).
# Assays:
# large crabgrass = test: Test D large crabgrass; format: in vivo, Digitaria sanguinalis; conditions: Preemergence, 0 to 100 scale
# In short: (§1)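 Values are visual plant-response ratings (0 no injury, 100 complete control) recorded 14 to 21 days after herbicide treatment, using a non-phytotoxic solvent mixture containing surfactant. Preemergence applications went to the surface of pots holding freshly sown seed in sandy loam.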
# Johnson grass = test: Test D Johnson grass; format: in vivo, Sorghum halepense; conditions: Preemergence, 0 to 100 scale
# In short: as §1
# common ragweed = test: Test D common ragweed; format: in vivo, Ambrosia elatior; conditions: Preemergence, 0 to 100 scale
# In short: as §1
# dallisgrass = test: Test D dallisgrass; format: in vivo, Paspalum dilatatum; conditions: Preemergence, 0 to 100 scale
# In short: as §1
# Spanishneedles = test: Test D Spanishneedles; format: in vivo, Bidens bipinnata; conditions: Preemergence, 0 to 100 scale, 0 no injury, 100 complete control
# In short: as §1
# surinam grass = test: Test D surinam grass; format: in vivo, Brachiaria decumbens; conditions: Preemergence, 0 to 100 scale
# In short: as §1
# pitted morningglory = test: Test D pitted morningglory; format: in vivo, Ipomoea lacunosa; conditions: Preemergence, 0 to 100 scale
# In short: as §1
# common pursiane = test: Test D common purslane; format: in vivo, Portulaca oleracea; conditions: Preemergence, 0 to 100 scale
# In short: as §1
# bermuda-grass = test: Test D bermudagrass; format: in vivo, Cynodon dactylon; conditions: Preemergence, 0 to 100 scale
# In short: as §1
# guineagrass = test: Test D guineagrass; format: in vivo, Panicum maximum; conditions: Preemergence, 0 to 100 scale
# In short: as §1
# Green foxtail [1] = test: Test D green foxtail; format: in vivo
# In short: as §1
# sandbur = test: Test D sandbur; format: in vivo, Cenchrus echinatus; conditions: Preemergence, 0 to 100 scale
# In short: as §1
# itchgrass = test: Test D itchgrass; format: in vivo, Rottboellia exaltata; conditions: Preemergence, 0 to 100 scale
# In short: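 Scoring used a 0–100 visual injury scale, with 0 meaning no effect and 100 complete control, assessed 14–21 days after application alongside untreated pots. Preemergence treatments went onto sandy loam surfaces of separately potted seeds within a day of sowing.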
# Green foxtail [2] = test: Test D green foxtail; format: in vivo; conditions: Rate 250 g/ha; Preemergence; 0 to 100 scale
# In short: as §1
# common groundsel = test: Test D common groundsel; format: in vivo, Senecio vulgaris; conditions: Preemergence, 0 to 100 scale
# In short: as §1
# [3] = Rate 16 g/ha, 0 no injury, 100 complete control
# [4] = Rate 32 g/ha, 0 no injury, 100 complete control
# [5] = Rate 64 g/ha, 0 no injury, 100 complete control
# [6] = Rate 125 g/ha, 0 no injury, 100 complete control
# [7] = Rate 64 g/ha, Preemergence; 0 to 100 scale, 0 no injury, 100 complete control
# [8] = Rate 125 g/ha, Preemergence; 0 to 100 scale, 0 no injury, 100 complete control
compound,measurement,setting,value
CCCn1c(=O)on(C(=O)N(c2ccc(Cl)cc2)C(C)C)c1=O [Compound 119],"Plant response rating, Large crabgrass",large crabgrass; [3],85
same,"Plant response rating, Large crabgrass",large crabgrass; [4],90
same,"Plant response rating, Large crabgrass",large crabgrass; [5],98
same,"Plant response rating, Large crabgrass",large crabgrass; [6],100
same,"Plant response rating, Large crabgrass",large crabgrass; Rate 250 g/ha,100
same,"Plant response rating, Johnsongrass",Johnson grass; [3],0
same,"Plant response rating, Johnsongrass",Johnson grass; [4],0
same,"Plant response rating, Johnsongrass",Johnson grass; [5],65
same,"Plant response rating, Johnsongrass",Johnson grass; [6],75
same,"Plant response rating, Johnsongrass",Johnson grass; Rate 250 g/ha,85
same,"Plant response rating, C. ragweed",common ragweed; [3],0
same,"Plant response rating, C. ragweed",common ragweed; [4],0
same,"Plant response rating, C. ragweed",common ragweed; [5],0
same,"Plant response rating, C. ragweed",common ragweed; [6],0
same,"Plant response rating, C. ragweed",common ragweed; Rate 250 g/ha,0
same,"Plant response rating, Dallisgrass",dallisgrass; [3],30
same,"Plant response rating, Dallisgrass",dallisgrass; [4],65
same,"Plant response rating, Dallisgrass",dallisgrass; [5],85
same,"Plant response rating, Dallisgrass",dallisgrass; [6],90
same,"Plant response rating, Dallisgrass",dallisgrass; Rate 250 g/ha,98
same,"Plant response rating, Spanishneedles",Spanishneedles; Rate 16 g/ha,0
same,"Plant response rating, Spanishneedles",Spanishneedles; Rate 32 g/ha,0
same,Spanishneedles plant response rating,Spanishneedles; Rate 64 g/ha,0
same,Spanishneedles plant response rating,Spanishneedles; Rate 125 g/ha,10
same,"Plant response rating, Surinam grass",surinam grass; [3],0
same,"Plant response rating, Surinam grass",surinam grass; [4],0
same,Surinam grass plant response rating,surinam grass; [5],50
same,Surinam grass plant response rating,surinam grass; [6],85
same,"Plant response rating, Surinam grass",surinam grass; Rate 250 g/ha,98
same,"Plant response rating, P. morninglory",pitted morningglory; [3],0
same,"Plant response rating, P. morninglory",pitted morningglory; [4],0
same,"Plant response rating, P. morninglory",pitted morningglory; [5],0
same,"Plant response rating, P. morninglory",pitted morningglory; [6],0
same,"Plant response rating, P. morninglory",pitted morningglory; Rate 250 g/ha,0
same,"Plant response rating, C. purslane",common pursiane; [3],0
same,"Plant response rating, C. purslane",common pursiane; [4],0
same,"Plant response rating, C. purslane",common pursiane; [5],0
same,"Plant response rating, C. purslane",common pursiane; [6],0
same,"Plant response rating, C. purslane",common pursiane; Rate 250 g/ha,0
same,"Plant response rating, Bermudagrass",bermuda-grass; [3],50
same,"Plant response rating, Bermudagrass",bermuda-grass; [4],65
same,"Plant response rating, Bermudagrass",bermuda-grass; [5],100
same,"Plant response rating, Bermudagrass",bermuda-grass; [6],100
same,"Plant response rating, Bermudagrass",bermuda-grass; Rate 250 g/ha,100
same,"Plant response rating, Guineagrass",guineagrass; [3],65
same,"Plant response rating, Guineagrass",guineagrass; [4],75
same,"Plant response rating, Guineagrass",guineagrass; [5],85
same,"Plant response rating, Guineagrass",guineagrass; [6],98
same,"Plant response rating, Guineagrass",guineagrass; Rate 250 g/ha,98
same,"Plant response rating, Green foxtail","Green foxtail [1]; Preemergence; Rate 16 g/ha; 0 to 100 scale, 0 no injury, 100 complete control",10
same,"Plant response rating, Green foxtail","Green foxtail [1]; Preemergence; Rate 32 g/ha; 0 to 100 scale, 0 no injury, 100 complete control",75
same,"Plant response rating, Green foxtail","Green foxtail [1]; Rate 16 g/ha; Preemergence; 0 to 100 scale, 0 no injury, 100 complete control",10
same,"Plant response rating, Green foxtail","Green foxtail [1]; Rate 32 g/ha; Preemergence; 0 to 100 scale, 0 no injury, 100 complete control",100
same,Green foxtail plant response rating,Green foxtail [1]; [7],90
same,"Plant response rating, Green foxtail",Green foxtail [1]; [7],90
same,Green foxtail plant response rating,Green foxtail [1]; [8],100
same,"Plant response rating, Green foxtail",Green foxtail [1]; [8],100
same,"Plant response rating, Green foxtail",Green foxtail [1]; Rate 250 g/ha; Preemergence; 0 to 100 scale,100
same,"Plant response rating, Sandbur",sandbur; [3],0
same,"Plant response rating, Sandbur",sandbur; [4],0
same,Sandbur plant response rating,sandbur; [5],65
same,Sandbur plant response rating,sandbur; [6],98
same,"Plant response rating, Sandbur",sandbur; Rate 250 g/ha,100
same,"Plant response rating, Itchgrass",itchgrass; [3],0
same,"Plant response rating, Itchgrass",itchgrass; [4],10
same,"Plant response rating, Itchgrass",itchgrass; [5],50
same,"Plant response rating, Itchgrass",itchgrass; [6],60
same,"Plant response rating, Itchgrass",itchgrass; Rate 250 g/ha,75
same,"Plant response rating, Green foxtail",Green foxtail [2],100
same,"Plant response rating, Com. groundsel",common groundsel; [3],85
same,"Plant response rating, Com. groundsel",common groundsel; [4],98
same,"Plant response rating, Com. groundsel",common groundsel; [5],100
same,"Plant response rating, Com. groundsel",common groundsel; [6],100
same,"Plant response rating, Com. groundsel",common groundsel; Rate 250 g/ha,100
